The target of this experiment is Sigma non-opioid intracellular receptor 1 (Homo sapiens, UniProt Q99720). The experiment in a line: Displacement [3H]-Pentazocine from sigma 1 receptor (unknown origin) expressed in HEK cell membranes.

pKi: −log10 of the molar value.

Sigma non-opioid intracellular receptor 1, sequence (Q99720 whole entry): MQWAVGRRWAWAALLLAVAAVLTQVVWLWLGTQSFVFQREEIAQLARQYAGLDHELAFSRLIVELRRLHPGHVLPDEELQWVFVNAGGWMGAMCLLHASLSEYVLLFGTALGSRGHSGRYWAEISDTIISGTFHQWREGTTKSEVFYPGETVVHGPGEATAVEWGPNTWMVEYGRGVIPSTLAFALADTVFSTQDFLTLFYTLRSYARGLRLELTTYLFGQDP

For orientation: pKi means −log10 of the Ki, conventionally taken in molar units. A lower pKi goes with a high Ki. The molecule `O=C(CCCN1CCCN(c2ccccn2)CC1)c1ccc(F)cc1` showed a negative logarithm of the Ki (pKi) of 7.20.

The record behind these values is BindingDB's records for doi:10.1016/j.bmc.2019.01.035 (Florida A&M University, 2019).
